As usually defined, the IC50 is the midpoint of a concentration-inhibition curve. Lower therefore signals inhibition by little substance.

This assay has as its target High affinity cGMP-specific 3',5'-cyclic phosphodiesterase 9A (Homo sapiens, UniProt O76083). As to the kind of experiment: Inhibition of human PDE9A expressed in Escherichia coli DH10 by scintillation proximity assay. (SPA uses beads or plates that emit light when radiolabelled molecules are held near them.)

Sequence of High affinity cGMP-specific 3',5'-cyclic phosphodiesterase 9A (O76083 whole entry): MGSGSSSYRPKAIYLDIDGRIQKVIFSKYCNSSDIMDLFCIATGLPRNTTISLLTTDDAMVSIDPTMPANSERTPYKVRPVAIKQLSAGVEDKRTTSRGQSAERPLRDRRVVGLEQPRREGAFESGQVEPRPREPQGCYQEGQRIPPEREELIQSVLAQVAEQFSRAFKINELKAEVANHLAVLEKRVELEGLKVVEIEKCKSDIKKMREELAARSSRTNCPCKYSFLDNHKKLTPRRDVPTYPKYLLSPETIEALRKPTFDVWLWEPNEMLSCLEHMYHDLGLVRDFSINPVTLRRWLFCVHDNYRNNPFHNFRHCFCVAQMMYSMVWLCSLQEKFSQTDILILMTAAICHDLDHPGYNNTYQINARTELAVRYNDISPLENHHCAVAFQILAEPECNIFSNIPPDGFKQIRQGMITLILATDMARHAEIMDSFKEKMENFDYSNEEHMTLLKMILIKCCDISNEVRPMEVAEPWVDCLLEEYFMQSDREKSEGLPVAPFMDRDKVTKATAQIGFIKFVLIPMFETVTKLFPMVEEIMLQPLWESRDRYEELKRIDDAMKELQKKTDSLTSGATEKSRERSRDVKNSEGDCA

Compound `O=c1[nH]c(Cc2ccccn2)nc2c1cnn2C1CCOCC1` [OSORESNONTRINE] registered an IC50 of 65 nM.

The values above are taken from ChEMBL document CHEMBL5233201, “Progress in mechanistically novel treatments for schizophrenia” (RSC Med Chem, 2021).
